The text below walks through data of patent publication US12503463B2, “Aliphatic acid amide derivative” (Sumitomo Pharma Co., Ltd., priority 2019, dated 2025).

This data set in a line: Test 3-1: metabolic stability test in human hepatic microsome. The format is in vitro ADME. As to conditions: Test 3-1: microsome 0.1 mg/mL, test compound 0.1 μmol/L, 37° C., 30 minutes. On the procedure:
Test 3-1: Metabolic Stability Test in Human Hepatic Microsome
The metabolic stability of the present compound in human hepatic microsome was evaluated as mentioned below. Human hepatic microsome was obtained from Xenontech. Human hepatic microsome, NADPH, and each test compound were mixed in 25 mmol/L phosphate buffer solution (pH 7.4) to reach the following concentrations as shown below, and the mixture was incubated at 37° C. for 30 minutes. • Human hepatic microsome: 0.1 mg/mL • NAPDH: 3.2 mmol/L • Test compound: 0.1 μmol/L
The residual ratio of test compound in each sample after 30 minutes was measured by LC-MS, and the metabolic stability in human hepatic microsome was calculated from the following formula. Metabolic stability in human hepatic microsome(mL/min/mg protein)=−LN(residual ratio)/30/0.1
As for `CCN(CCN1CCC(c2noc3cc(F)ccc23)CC1)C(=O)C1CCC(O)CC1` (stereo not shown) [Example 9], the “Metabolic stability in human hepatic microsome” value (shortened to “Metabolic stability”) is <0.05 mL/min/mg protein.
The result for `CCN(CCCN1CCC(c2noc3cc(F)ccc23)CC1)S(=O)(=O)C(C)CO` (stereo not shown) [Example 56] reads <0.05 mL/min/mg protein; that for `CC(C)N(CCN1CCC(c2noc3cc(F)ccc23)CC1)C(=O)[C@@H](C)O` [Example 42], <0.05 mL/min/mg protein.
The result for `CCN(CCN1CCC(c2noc3cc(F)ccc23)CC1)C(=O)CO` [Example 12] reads 0.089 mL/min/mg protein.
For the compound `CCN(CCN1CCC(c2noc3cc(F)ccc23)CC1)C(=O)C1CN(C)CC1O` (stereo not shown) [Example 75, N-Ethyl-N-{2-[4-(6-fluoro-1,2-benzoisoxazol-3-yl)piperidin-1-yl]ethyl}-4-hydroxy-1-methylpyrrolidine-3-carboxamide], the “Metabolic stability” value is listed as <0.05 mL/min/mg protein.
For `CCN(CCN1CCC(c2noc3cc(F)ccc23)CC1)C(=O)C1CN(C(C)=O)CCC1O` (stereo not shown) [Example 74] the value was <0.05 mL/min/mg protein; for `CCN(CCN1CCN(c2noc3ccccc23)CC1)C(=O)C(C)O` (stereo not shown) [Example 26], <0.05 mL/min/mg protein; for `CCN(CCN1CCC(c2c[nH]c3cc(F)ccc23)CC1)C(=O)CCO` [Example 48], <0.05 mL/min/mg protein.
As for `CCN(CCN1CCC(n2ncc3cc(F)ccc32)CC1)S(=O)(=O)C(C)CO` (stereo not shown) [Example 64], the “Metabolic stability” value was 0.097 mL/min/mg protein.
The result for `CCN(CCN1CCC(c2noc3cc(F)ccc23)CC1)C(=O)C(O)C(F)(F)F` (stereo not shown) [Example 34] reads <0.05 mL/min/mg protein.
For `CCN(CCN1CCC(n2ncc3cc(F)ccc32)CC1)C(=O)[C@@H](C)O` [Example 3, (2R)-N-Ethyl-N-{2-[4-(5-fluoro-1H-indazol-1-yl)piperidin-1-yl]ethyl}-2-hydroxypropanamide] the value was <0.05 mL/min/mg protein; for `CCN(CCN1CCC(c2c[nH]c3cc(F)ccc23)CC1)S(=O)(=O)CCO` [Example 62], <0.05 mL/min/mg protein.
For `CCN(CCN1CCC(c2n[nH]c3cc(F)ccc23)CC1)C(=O)C(C)O` (stereo not shown) [Example 19, N-Ethyl-N-{2-[4-(6-fluoro-1H-indazol-3-yl)piperidin-1-yl]ethyl}-2-hydroxypropanamide] the value was <0.05 mL/min/mg protein; for `CCN(CCN1CCC(c2noc3cc(F)c(C)cc23)CC1)S(=O)(=O)CCO` [Example 58], <0.05 mL/min/mg protein; for `CCN(CCN1CCC(c2noc3cc(F)ccc23)CC1)C(=O)C1(O)CCNC1` (stereo not shown) [Example 70], <0.05 mL/min/mg protein.
With `CCN(CCN1CCC(c2noc3cc(F)ccc23)CC1)C(=O)C1(O)CCCNC1` (stereo not shown) [Example 69], the “Metabolic stability” value is given as <0.05 mL/min/mg protein.
The result for `CCN(CCN1CCC(c2noc3cc(F)ccc23)CC1)C(=O)C1(O)CCOCC1` [Example 11] reads <0.05 mL/min/mg protein.
For `[2H]C(C)(O)C(=O)N(CC)CCN1CCC(c2noc3cc(F)ccc23)CC1` (stereo not shown) [Example 40] the value was <0.05 mL/min/mg protein; for `CCN(CCN1CCC(c2noc3ccccc23)CC1)C(=O)C(C)O` (stereo not shown) [Example 25], <0.05 mL/min/mg protein.
`CCN(CCN1CCC(c2noc3ccc(C)cc23)CC1)S(=O)(=O)CCO` [Example 59]: the “Metabolic stability” value was 0.079 mL/min/mg protein.
On to `CCN(CCN1CCC(c2c[nH]c3ccccc23)CC1)C(=O)[C@H](C)O` [Example 23, (2S)-N-Ethyl-2-hydroxy-N-{2-[4-(1H-indol-3-yl)piperidin-1-yl]ethyl}propanamide], for which the “Metabolic stability” value is on record as <0.05 mL/min/mg protein.
The result for `CCN(CCN1CCC(c2noc3cc(F)ccc23)CC1)C(=O)C(C)(C)O` [Example 6] reads 0.053 mL/min/mg protein; that for `CCN(CCN1CCC(c2c[nH]c3ccccc23)CC1)S(=O)(=O)CCO` [Example 57], 0.06 mL/min/mg protein; that for `CCN(CCN1CCC(c2noc3cc(F)ccc23)CC1)C(=O)[C@H]1CC[C@@H](O)CC1` [Example 44], <0.05 mL/min/mg protein.
For `CCN(CCN1CCC(c2noc3cc(F)ccc23)CC1)C(=O)C(F)(F)CO` [Example 36] the value was <0.05 mL/min/mg protein; for `CCN(CCN1CCC(c2noc3cc(F)ccc23)CC1)C(=O)[C@@H](C)O` [Example 1, (2R)-N-Ethyl-N-{2-[4-(6-fluoro-1,2-benzoisoxazol-3-yl)piperidin-1-yl]ethyl}-2-hydroxypropanamide], <0.05 mL/min/mg protein; for `CCN(CCN1CCC(c2noc3cc(F)c(C)cc23)CC1)C(=O)[C@H](C)O` [Example 13], 0.054 mL/min/mg protein.
The result for `CCN(CCN1CCC(c2c[nH]c3cc(F)ccc23)CC1)C(=O)[C@H](C)O` [Example 20, (2S)-N-Ethyl-N-{2-[4-(6-fluoro-1H-indol-3-yl)piperidin-1-yl]ethyl}-2-hydroxypropanamide] reads <0.05 mL/min/mg protein; that for `CCN(CCN1CCC(c2noc3cc(F)ccc23)CC1)C(=O)C1CNCC1O` (stereo not shown) [Example 66], <0.05 mL/min/mg protein; that for `CCN(CCN1CCC(c2noc3ccccc23)CC1)S(=O)(=O)CCO` [Example 61], <0.05 mL/min/mg protein.
For `CCN(CCN1CCC(c2noc3cc(F)ccc23)CC1)C(=O)C1CNCCC1O` (stereo not shown) [Example 67], the “Metabolic stability” value was <0.05 mL/min/mg protein.
For `CCN(CCN1CCC(n2ncc3cc(F)ccc32)CC1)S(=O)(=O)CCO` [Example 63] the value was <0.05 mL/min/mg protein; for `CCN(CCN1CCC(c2noc3cc(F)ccc23)CC1)C(=O)C(C)O` (stereo not shown) [Example 4], <0.05 mL/min/mg protein.
The result for `CCN(CCN1CCC(c2noc3cc(F)ccc23)CC1)C(=O)[C@H]1NCC[C@H]1O` [Example 68] reads <0.05 mL/min/mg protein; that for `CCN(CCCN1CCN(c2noc3cc(F)ccc23)CC1)S(=O)(=O)C(C)CO` (stereo not shown) [Example 55], 0.059 mL/min/mg protein; that for `CCN(CCN1CCC(c2noc3cc(F)ccc23)CC1)C(=O)C1CC(O)C1` (stereo not shown) [Example 46], <0.05 mL/min/mg protein.
For `CCN(CCN1CCC(c2noc3cc(F)ccc23)CC1)C(=O)C1(O)CC1` [Example 24] the value was <0.05 mL/min/mg protein.
On to `CCN(CCN1CCC(c2noc3cc(F)ccc23)CC1)C(=O)CC(C)O` (stereo not shown) [Example 10], for which the “Metabolic stability” value is given as <0.05 mL/min/mg protein.
Take `CCN(CCN1CCC(n2ncc3cc(F)ccc32)CC1)C(=O)[C@H](C)O` [Example 21, (2S)-N-Ethyl-N-{2-[4-(5-fluoro-1H-indazol-1-yl)piperidin-1-yl]ethyl}-2-hydroxypropanamide]: the “Metabolic stability” value is <0.05 mL/min/mg protein.
The result for `CCN(CCN1CCC(c2noc3cc(F)ccc23)CC1)C(=O)C(C)(C)CO` [Example 7] reads 0.08 mL/min/mg protein; that for `CCN(CCN1CCN(c2noc3cc(F)ccc23)CC1)C(=O)C(C)O` (stereo not shown) [Example 27], <0.05 mL/min/mg protein; that for `CCN(CCN1CCC(c2noc3cc(F)ccc23)CC1)C(=O)C(C)CO` (stereo not shown) [Example 37], <0.05 mL/min/mg protein.
Take `CCN(CCN1CCC(c2noc3cc(F)ccc23)CC1)C(=O)C1(O)CCCN(C(C)=O)C1` (stereo not shown) [Example 72]: the “Metabolic stability” value came to 0.057 mL/min/mg protein.
For `CCN(CCN1CCC(c2noc3cc(F)ccc23)CC1)C(=O)[C@H]1CC[C@H](O)CC1` [Example 43] the value was <0.05 mL/min/mg protein.
The result for `CCCN(CCN1CCC(c2noc3cc(F)ccc23)CC1)C(=O)C(C)O` (stereo not shown) [Example 39] reads <0.05 mL/min/mg protein.
On to `CCN(CCN1CCC(c2c[nH]c3ccccc23)CC1)C(=O)[C@@H](C)O` [Example 49], for which the “Metabolic stability” value is on record as <0.05 mL/min/mg protein.
The result for `CC(C)N(CCN1CCC(c2noc3cc(F)ccc23)CC1)C(=O)[C@H](C)O` [Example 41] reads <0.05 mL/min/mg protein; that for `CCN(CCN1CCC(n2ccc3cc(F)ccc32)CC1)C(=O)C(C)O` (stereo not shown) [Example 50], <0.05 mL/min/mg protein; that for `CCN(CCN1CCC(n2ncc3cc(F)ccc32)CC1)C(=O)CCO` [Example 2, N-Ethyl-N-{2-[4-(5-fluoro-1H-indazol-1-yl)piperidin-1-yl]ethyl}-3-hydroxypropanamide], <0.05 mL/min/mg protein.
In the case of `CCN(CCCN1CCC(c2noc3cc(F)ccc23)CC1)C(=O)[C@H](C)O` [Example 38], the “Metabolic stability” value was <0.05 mL/min/mg protein.
`CC[C@@H](O)C(=O)N(CC)CCN1CCC(c2noc3cc(F)ccc23)CC1` [Example 29]: the “Metabolic stability” value is listed as <0.05 mL/min/mg protein.
Consider `CCN(CCN1CCC(c2c[nH]c3ccccc23)CC1)C(=O)CCO` [Example 47], for which the “Metabolic stability” value was <0.05 mL/min/mg protein.
